From patent publication US20170121646A1, “Improved Stabilization of Non-Protease Enzyme” (Novozymes A/S, priority 2014, published 2017)

Legend:
Format in all cases: biochemical
Savinase [1] = target: T1, Savinase (Lederbergia lenta, UniProt P29600); assay: Storage stability in Detergent C, residual protease activity after 4 weeks at 30° C.; details: Detergent C with Savinase; for %-points per dose (residual protease activity): increase from dose 1 to dose 2
T1 sequence (P29600 1-269): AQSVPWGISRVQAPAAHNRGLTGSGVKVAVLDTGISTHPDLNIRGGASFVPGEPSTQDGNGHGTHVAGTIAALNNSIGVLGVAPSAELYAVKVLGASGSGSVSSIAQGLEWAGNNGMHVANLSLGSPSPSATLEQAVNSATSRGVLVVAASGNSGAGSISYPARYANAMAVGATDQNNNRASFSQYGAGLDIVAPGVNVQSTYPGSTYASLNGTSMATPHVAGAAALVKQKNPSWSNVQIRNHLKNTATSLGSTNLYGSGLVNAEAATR
Description: (§1) Further the following detergents with protease inhibitors were prepared. The detergents were placed in closed glasses at 30° C. Residual activity of lipase and protease was measured (by comparison to a reference stored at −18° C.) after 4 weeks, using standard enzyme analytical methods (protease measured by hydrolysis of N,N-dimethylcasein at 40° C., pH 8.3 and lipase measured by hydrolysis of p-nitrophenyl valerate at 40° C., pH 7.7). Z-GA-NHCH(CH2C6H4OH)CH(OH)SO3Na was added in a concentration of 8.1 mg/L (dose 1) and 16.1 mg/L (dose 2). 4-FPBA was added in a concentration of 80 mg/L (dose 1) and 160 mg/L (dose 2).

Lipase (Lipex 100L) [2] = assay: Storage stability in Detergent C with Savinase, residual lipase activity after 4 weeks at 30° C.; details: increase from dose 1 to dose 2
Description: as §1

Savinase [3] = target: T1, Savinase; assay: Storage stability in Detergent M, residual protease activity after 1 week at 40° C.; details: for Residual activity at dose 1 / Residual activity at dose 2 / Inhibitor dose 1: 1 week 40° C. vs −18° C. reference; for Inhibitor dose 1: dose 1 = concentration C found by interpolation; for ((residual activity at dose 2) − (residual activity at dose 1))/((residual activity at dose 1) − (residual activity at no inhibitor)): criterion that defines dose 1; for Inhibitor dose 2: dose 2 = 2×dose 1
Source text: An inhibitor concentration C is defined, so that when the inhibitor concentration is doubled from a concentration of C to a concentration of 2C (i.e., 2C=2×C), the residual protease activity increases (“residual protease activity at 2C”−“residual protease activity at C”) by 25% of the residual protease activity increase from no inhibitor to C (“residual protease activity at C”−“residual activity at no inhibitor”). “No inhibitor” means that the concentration of inhibitor is zero.
The test system to determine “dose 1” (C) and “dose 2” (2C) is described in Example 1. A model detergent system is used (detergent A) and protease, lipase, and different concentrations of protease inhibitor are added (detergent M). Residual protease activity is determined by comparing activity after storage for 1 week at 40° C. with 1 week at −18° C. The data are used to prepare a dose response curve which is used to identify the inhibitor concentration C.
Various peptide aldehydes were produced by a custom peptide synthesis company, all with a purity>80%. The peptide aldehydes were dissolved in DMSO to a concentration of 10 mg/mL before use.
Further the following detergents with protease inhibitors were prepared. The detergents were placed in closed glasses at 40° C. Residual activity of protease was measured (by comparison to a reference stored at −18° C.) after 1 week, using standard enzyme analytical methods (protease measured by hydrolysis of N,N-dimethylcasein at 40° C., pH 8.3). The inhibitor levels tested relative to protease were in the range 0.5-500 molar ratio (inhibitor:protease). The data points were connected and the inhibitor dose 1 and dose 2 were determined by interpolation so that ((residual protease activity at dose 2)−(residual protease activity at dose 1))/((residual protease activity at dose 1)−(residual protease activity at no inhibitor))=0.25; and dose 2=2×dose 1.

Liquanase = assay: Storage stability in Detergent C, residual protease activity after 4 weeks at 30° C.; details: Detergent C with Liquanase; increase from dose 1 to dose 2
Description: as §1

Lipase (Lipex 100L) [4] = assay: Storage stability in Detergent B (with Savinase), residual lipase activity after 4 weeks at 30° C.; details: increase from dose 1 (12.9 mg/L) to dose 2 (26.0 mg/L)
Description: (§2) Further the following detergents with protease inhibitors were prepared. The detergents were placed in closed glasses at 30° C. Residual activity of lipase and protease was measured (by comparison to a reference stored at −18° C.) after 4 weeks, using standard enzyme analytical methods (protease measured by hydrolysis of N,N-dimethylcasein at 40° C., pH 8.3 and lipase measured by hydrolysis of p-nitrophenyl valerate at 40° C., pH 7.7). Z-GA-NHCH(CH2C6H4OH)CH(OH)SO3Na was added in a concentration of 12.9 mg/L (dose 1) and 26.0 mg/L (dose 2).
Target sequence in this assay (O59952 23-291 T253R/N255R): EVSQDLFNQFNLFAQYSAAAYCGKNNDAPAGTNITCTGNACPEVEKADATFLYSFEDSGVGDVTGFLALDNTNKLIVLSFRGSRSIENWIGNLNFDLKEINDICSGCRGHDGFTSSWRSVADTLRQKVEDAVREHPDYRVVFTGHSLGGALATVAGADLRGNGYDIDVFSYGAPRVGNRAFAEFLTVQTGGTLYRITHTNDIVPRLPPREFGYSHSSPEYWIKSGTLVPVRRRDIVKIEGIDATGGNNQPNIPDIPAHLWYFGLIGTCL

Protease (Savinase 16L) = target: T2, Protease (Savinase 16L) (Lederbergia lenta, UniProt P29600); assay: Storage stability in Detergent B, residual protease activity after 4 weeks at 30° C.; details: increase from dose 1 (12.9 mg/L) to dose 2 (26.0 mg/L)
T2 sequence (P29600 1-269): T1 sequence (P29600 1-269)
Description: as §2

Lipase (Lipex 100L) [5] = assay: Storage stability in Detergent C with Liquanase, residual lipase activity after 4 weeks at 30° C.; details: increase from dose 1 to dose 2
Description: as §1
Target sequence in this assay (O59952 23-291 T253R/N255R): as above

Compound | remaining activity at 80 µg/mL (Savinase [1]; 4 weeks 30° C. vs −18° C. reference, dose 1: Z-GA-NHCH(CH2C6H4OH)CH(OH)SO3Na 8.1 mg/L, 4-FPBA 80 mg/L, read-out: Inhibitor dose 1 (residual protease activity)) | remaining activity at 160 µg/mL (Savinase [1]; 4 weeks 30° C. vs −18° C. reference, dose 2: Z-GA-NHCH(CH2C6H4OH)CH(OH)SO3Na 16.1 mg/L, 4-FPBA 160 mg/L, read-out: Inhibitor dose 2 (residual protease activity)) | %-points per dose (residual protease activity) (Savinase [1]) | %-points per dose (residual lipase activity) (Lipase (Lipex 100L) [2]) | Residual activity at dose 1 (Savinase [3]) | Residual activity at dose 2 (Savinase [3]) | Inhibitor dose 1 (Savinase [3]) | ((residual activity at dose 2) − (residual activity at dose 1))/((residual activity at dose 1) − (residual activity at no inhibitor)) (Savinase [3]) | Inhibitor dose 2 (Savinase [3]) | %-points per dose (residual protease activity) (Liquanase) | %-points per dose (residual lipase activity) (Lipase (Lipex 100L) [4]) | %-points per dose (residual protease activity) (Protease (Savinase 16L)) | %-points per dose (residual lipase activity) (Lipase (Lipex 100L) [5])
O=Cc1ccc(B(O)O)cc1 [4-FPBA, 4-formyl-phenyl-boronic acid] | 98% | 98% | 0% | 16% | 63% | 75% | 91 mg/mL | 25% | 182 mg/mL |  |  |  | 
Cbz-Gly-Ala-Leu-H [Z-GAL-H] |  |  |  |  | 50% | 60% | 5.7 mg/mL | 25% | 11.5 mg/mL |  |  |  | 
Cbz-Gly-Ala-Phe-H [Z-GAF-H] |  |  |  |  | 75% | 90% | 18.7 mg/mL | 25% | 37.5 mg/mL |  |  |  | 
Z-GA-NHCH(CH2C6H4OH)CH(OH)SO3Na |  |  | 9% | 21% |  |  | 8.1 mg/mL | 25% | 16.1 mg/mL | 0% | 30% | 10% | 25%
